Data reported in patent US20250332173A1, “COMPOUNDS AND METHODS FOR MODULATING NUCLEIC ACID SPLICING” (REMIX THERAPEUTICS INC., priority 2021, published 2025).
Read-outs that look alike come from different tables or passages of the source.

Legend:
MYB mRNA = assay: RT-qPCR splicing assay, MYB canonical junction (CJ) and alternative junction (AJ) mRNA; type: cell-based, human; settings: Homo sapiens; for AC50: increase in MYB alternative junction (AJ) mRNA, read-out: MYB AJ AC50
Procedure, shortened: (§1)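 Read-out is one-step RT-qPCR on cell lysates detecting the exon-exon junction of each isoform, normalized to a housekeeping gene (PPIA in A673, GAPDH or GUSB in K562).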

SMN2 mRNA = assay: RT-qPCR splicing assay, SMN2 canonical junction (CJ) mRNA; type: cell-based, human; settings: Homo sapiens
Procedure, shortened: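 A673 or K562 cells were treated for 24 h at 37 °C with compound in 11-point 3-fold dilution (top 10 uM final, DMSO ≤0.25%). Lysates then went to one-step RT-qPCR measuring canonical-junction mRNA, normalized to GAPDH, GUSB or PPIA.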

HTT mRNA = assay: RT-qPCR splicing assay, HTT canonical junction (CJ) and alternative junction (AJ) mRNA; type: cell-based, human; settings: Homo sapiens; for AC50: increase in HTT alternative junction (AJ) mRNA, read-out: HTT AJ AC50
Procedure, shortened: as §1

Target C = assay: HiBiT protein abundance assay, Target C HiBiT K562 cell line; type: cell-based; settings: Homo sapiens; HiBiT lytic detection, modified K562 cells, 24 hours, top dose 10 μM; read-out: Effect on protein abundance, Target C (IC50)
Procedure, shortened: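 Protein abundance was read by Nano-Glo HiBiT lytic luminescence after 24 h compound exposure (10-point, threefold series from 10 μM final) of HiBiT knock-in K562 cells. Parental K562 served as baseline; the 50%-abundance concentration was interpolated from a four-parameter logistic fit.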

[1] = canonical junction qPCR panel, Table 5, read-out: MYB (decrease in CJ mRNA levels, IC50)
[2] = decrease in MYB canonical junction (CJ) mRNA, RT-qPCR, read-out: MYB CJ IC50
[3] = canonical junction qPCR panel, Table 5, read-out: SMN2 (decrease in CJ mRNA levels, IC50)
[4] = decrease in HTT canonical junction (CJ) mRNA, RT-qPCR, read-out: HTT CJ IC50
[5] = canonical junction qPCR panel, Table 5, read-out: HTT (decrease in CJ mRNA levels, IC50)
[6] = Table 5 panel, canonical junction qPCR, compound concentration having 50% response in CJ decrease, read-out: MYB IC50 (decrease in CJ mRNA levels)
[7] = Table 5 panel, canonical junction qPCR, compound concentration having 50% response in CJ decrease, read-out: SMN2 IC50 (decrease in CJ mRNA levels)
[8] = Table 5 panel, canonical junction qPCR, compound concentration having 50% response in CJ decrease, read-out: HTT IC50 (decrease in CJ mRNA levels)

Compound	IC50 (MYB mRNA; [1]) [nM]	IC50 (MYB mRNA; [2]) [nM]	AC50 (MYB mRNA; RT-qPCR) [nM]	IC50 (SMN2 mRNA; [3]) [nM]	IC50 (HTT mRNA; [4]) [nM]	AC50 (HTT mRNA; RT-qPCR) [nM]	IC50 (HTT mRNA; [5]) [nM]	IC50 (Target C) [nM]	IC50 (MYB mRNA; [6]) [nM]	IC50 (SMN2 mRNA; [7]) [nM]	IC50 (HTT mRNA; [8]) [nM]
Cc1cn2cc(-c3ncc4c(=O)n(C56CCC(N)(CC5)C6)ccc4n3)cc(F)c2n1 [Compound 1469, 6-(4-aminonorbornane-1-yl)-2-(8-fluoro-2-methyl-imidazo[1,2-a]pyridin-6-yl)pyrido[4,3-d]pyrimidin-5-one]	100 to 1000	100 to 1000	100 to 1000	< 100	1000 to 10000	1000 to 10000	1000 to 10000	1000 to 10000			
Cn1cc2cc(-c3ncc4c(=O)n([C@@H]5CCNC5)ccc4n3)c(O)c(F)c2n1 [Compound 1466]	100 to 1000	100 to 1000	100 to 1000	< 100	100 to 1000	100 to 1000	100 to 1000	100 to 1000			
Cn1cc2ccc(-n3cnc4ccc(NC5CCNCC5)cc4c3=O)cc2n1 [Compound 2164]	> 10000	> 10000	> 10000	> 10000	> 10000	> 10000	> 10000	> 10000			
Cc1c(O)c(-c2ncc3c(=O)n([C@@H]4C[C@H]5COC[C@@H](C4)N5)ccc3n2)cc2cn(C)nc12 [Compound 1471]	< 100	< 100	< 100	< 100	100 to 1000	100 to 1000	100 to 1000	100 to 1000			
Cc1c(O)c(-c2ncc3c(=O)n([C@H]4CCNC5(CC5)C4)ccc3n2)cc2cn(C)nc12 [Compound 1512]	< 100	100 to 1000	< 100		100 to 1000	100 to 1000	100 to 1000	100 to 1000			
Cc1cn2nc(-n3cnc4ccc(N5CCN(C)CC5)cc4c3=O)cc(C)c2n1 [Compound 2202]	1000 to 10000	1000 to 10000	1000 to 10000	1000 to 10000	1000 to 10000	1000 to 10000	1000 to 10000	1000 to 10000			
Cc1c(O)c(-c2nc(C)c3c(=O)n([C@@H]4CCNC5(CC5)C4)ccc3n2)cc2cn(C)nc12 [Compound 1515, (R)-2-(6-hydroxy-2,7-dimethyl-2H-indazol-5-yl)-4-methyl-6-(4-azaspiro[2.5]octan-7-yl)pyrido[4,3-d]pyrimidin-5(6H)-one]	< 100	100 to 1000	< 100		1000 to 10000	100 to 1000	100 to 1000	100 to 1000			
Cc1c(O)c(-c2ccc3c(=O)n([C@H]4C[C@@H](C)N[C@@H](C)C4)ccc3n2)cc2cn(C)nc12 [Compound 1464, 6-[(2S,6R)-2,6-dimethyl-4-piperidyl]-2-(6-hydroxy-2,7-dimethyl-indazol-5-yl)-1,6-naphthyridin-5-one]	< 100	100 to 1000	< 100	< 100	100 to 1000	100 to 1000	100 to 1000				
Cc1cn2cc(-c3ccc4c(=O)n(C5CCNCC5)cnc4c3F)cc(F)c2n1 [Compound 210]		1000 to 10000	1000 to 10000		1000 to 10000	1000 to 10000			1000 to 10000	100 to 1000	1000 to 10000
Cc1cn2cc(-n3cnc4cc(N5CCN(C)CC5)ccc4c3=O)cc(F)c2n1 [Compound 229]		> 10000	> 10000		> 10000	> 10000			> 10000	> 10000	> 10000
Cc1cn2cc(-c3cc(F)c4c(=O)n(C5CCNCC5)cnc4c3)cc(F)c2n1 [Compound 230]		< 100	< 100		< 100	< 100			< 100	< 100	< 100
CN1CCC(n2cnc3cc(-c4cc(F)c5nn(C)cc5c4)ccc3c2=O)CC1 [Compound 209]		100 to 1000	100 to 1000		100 to 1000	1000 to 10000			100 to 1000	< 100	1000 to 10000
